Source: patent publication EP0678516B1, “Preparation of 2-bromo-5-(2-bromo-2-nitrovinyl)-furan and its use as microcide” (CENTRO DE BIOACTIVOS QUIMICOS DE LA UNIVERSIDAD CENTRAL DE …, priority 1994, dated 1995)

Tested on: Pseudomonas aeruginosa
Test: Experimental eye infection, erosion and instillation method
Format: in vivo, New Zealand Rabbits
Conditions: post inoculation evaluation
Experimental: The effectiveness of two oil formulations was checked of 0.05% for the experimental treatment of eye infections by Pseudomonas aeruginosa in New Zealand Rabbits through the erosion and instillation method. The effectiveness of treatments was tested clinically and microbiologically, observing significant differences with the control group (not treated) (Table No. 2 and 2.1.).

[1] = group I, ointment at 0.05% for 8 days
[2] = group II, ointment at 0.05% for 4 days
[3] = group III, eye drops at 0.05% for 4 days

O=[N+]([O-])C(Br)=Cc1ccc(Br)o1 [Product G-1, 2-bromo-5-(2-bromo-2-nitro-vinyl)-furan]
Bacteriolo-gical Exam [1]: 6 (+) | Edam [1]: 6/6 | Hyperemia [1]: 6/6 | Secretions [1]: 6/6 | Ulcer [1]: 6/6 | Bacteriolo-gical Exam [2]: 6 (+) | Edam [2]: 6/6 | Hyperemia [2]: 6/6 | Secretions [2]: 6/6 | Ulcer [2]: 6/6 | Bacteriolo-gical Exam [3]: 6 (+) | Edam [3]: 6/6 | Hyperemia [3]: 6/6 | Secretions [3]: 6/6 | Ulcer [3]: 6/6
